Reference: patent US10023615B2, “Efficient transport into white blood cells” (priority 2008, dated 2018)
“Also recorded” adds a separate entry of the source. Ends that are not written are not given here.

Tests used:
TNBS induced colitis = TNBS induced colitis (IBD study); type: in vivo
Protocol: b) Constitution of Test Groups and Dose Levels • The table below lists the experimental groups comprising the study.
c) Test Procedures • Colitis was induced by administration of TNBS dissolved in 50% Ethanol • All animals were then treated with doses of XG-102 in the range of 0.1 to 1000 μg/kg, […], as a single or repeated daily doses (see above).
d) Observations and Examinations • i) Clinical Signs • Throughout the duration of the above experiment, careful clinical examinations were carried out and recorded. Observations included changes external appearance, e.g. of the skin, fur, eyes, mucous membranes, occurrence of secretions and excretions (e.g. diarrhea), and autonomic activity. Changes in gait, posture and response to handling, as well as the presence of bizarre behavior, tremors, convulsions, sleep and coma were also noted. • ii) Body Weights • Determination of individual body weight of animals was made on a daily basis. • iii) Clinical Assessment of Colitis • Body weight, stool consistency and bleeding per rectum were all recorded daily and served as the parameters of disease severity score:
• iv) Gross Pathology of the Colon • On the last day of the experiment, animals were euthanized and the colon was removed for gross pathology evaluation according to the following score: […]

[1] = test system: bleomycin induced lung inflammation; test: Bleomycin (BLM) induced acute lung inflammation; type: in vivo, C57BL/6 mice; details: for cell recruitment in bronchoalveolar lavage space: single dose, 1 day
Source text: In order to determine the activity of the exemplary all-D retro-inverso IB(s) peptide XG-102 (SEQ ID NO: 233) in the treatment of Chronic Obstructive Pulmonary Disease (COPD) XG-102 (SEQ ID NO: 233) is used in an animal model of Bleomycin induced acute lung inflammation and fibrosis. The protocol of bleomycin induced inflammation and fibrosis has been described before in the literature. The aim of the Experiment was to investigate the effect of XG-102 (SEQ ID NO: 233) by subcutaneous (s.c.) route on neutrophil recruitment in broncho alveolar lavage (BAL) and lung in bleomycin induced inflammation and fibrosis: • at 1 day after a single bleomycin administration (10 mg/kg) • and at day 10 with the development of fibrosis
1) Method and Experimental Approach • The test compound XG-102 (SEQ ID NO: 233) at two doses and vehicle control were given s.c. with a single intranasal administration of bleomycin and mice were analyzed after 1 and 10 days. The animals used in the model were 10 C57BL/6 mice (8 weeks old) per group. The experimental groups included vehicle, 0.001 mg/kg XG-102 (SEQ ID NO: 233) and 0.1 mg/kg XG-102 (SEQ ID NO: 233), and the treatment consisted of repeated sub-cutaneous administration of XG-102 (SEQ ID NO: 233), prior to bleomycin administration then every 3 days. Acute lung inflammation at 24 h was monitored by BAL lavage, cytology, cell counts, and lung myeloperoxidase activity. The effect of the compound was compared with vehicle controls. Lung fibrosis was assessed histologically using hematoxylin and eosin staining at day 10 after the single dose of bleomycin.
1.1) Bleomycin Administration • Bleomycin sulfate in saline (10 mg/kg body weight) from Bellon Laboratories (Montrouge, France) or saline were given through the airways by nasal instillation in a volume of 40 μL under light ketamine-xylasine anesthesia. The groups for Bleomycin administration for both bleomycin induced inflammation and fibrosis included: Vehicle, 0.001 mg/kg XG-102 (SEQ ID NO: 233) and 0.1 mg/kg XG-102 (SEQ ID NO: 233). The route for bleomycin induced inflammation was subcutaneous (s.c.) route, and administration occurred as a single dose. The route for bleomycin induced fibrosis was subcutaneous (s.c.) route, and administration occurred 3 times in 10 days.
1.2) Bronchoalveolar Lavage Fluid (BALE) • After incision of the trachea, a plastic cannula was inserted and airspaces were washed using 0.3 ml of PBS solution, heated to 37° C. The samples collected were dispatched in 2 fractions: the first one (1 ml corresponding to the 2 first lavages) was used for mediator measurement and the second one for the cell determination (4 ml). The first fraction was centrifuged (600 g for 10 min) and supernatant was fractionated and kept at −80° C. until mediator determination. The cell pellet was then resuspended in 0.4 ml sterile NaCl, 0,9%, and pooled with the second fraction and was used for cell counts.
1.3) Lung Homogenization • After BAL the whole lung was removed and placed inside a microtube (Lysing matrix D, Q Bio Gene, Illkrich, France) with 1 ml of PBS, total lung tissue extract was prepared using a Fastprep® system (FP120, Q Bio Gene, Illkrich, France), the extract was then centrifuged and the supernatant stored at −80° C. before mediator measurement and collagen assay with Sircol Collagen Assay (France Biochem Division, France).
1.4) Cell Count and Determination • Total cell count was determined in BAL fluid using a Malassez hemocytometer. Differential cell counts were performed on cytospin preparations (Cytospin 3, Thermo Shandon) after staining with MGG Diff-quick (Dade Behring AG). Differential cell counts were made on 200 cells using standard morphological criteria.
1.5) TNF Measurement • TNF level in BALF was determined using ELISA assay kits (Mouse DuoSet, R&D system, Minneapolis, USA) according to manufacturer's instructions. Results are reported as pg/ml. […]

[2] = test system: primary cultured macrophages; test: Incorporation of XG-102 into primary cultured macrophages, antibody detection; type: cell-based; details: incubated and extensively washed; specific antibody
Protocol: FIG. 5: (A): Primary cultured macrophages were incubated with XG-102 (SEQ ID NO: 233) and extensively washed. […] (B): Mice were injected i.v. with 0.1 mg/kg FITC-D-TAT (SEQ ID NO: 4 plus FITC) and were sacrificed 24 hours later with PAF perfusion through the heart. Slices were obtained after cryoprotection using cryostat.

## dqsrpvqpflnIttprkprpprrrqrrkkrg (DQSRPVQPFLNLTTPRKPRPPRRRQRRKKRG; not fully specified (some residues); printed as dqsrpvqpflnIttprkprpprrrqrrkkrg) [XG-102]
TNBS induced colitis
  disease recovery (conclusion): active in enhancing diseases recovery
TNBS induced colitis; TNBS induced weight loss
  body weights: either prevented the weight loss or ameliorated the symptoms and supported recovery
TNBS induced colitis; any dose, route or time schedule (single dose or daily dose)
  clinical score: an effect equivalent to or better than the one observed with the commonly used reference drug sulfasalazine
TNBS induced colitis; mouse, in vivo
  clinical signs: No abnormalities were observed
  mortality rate: No mortality was recorded
[1]; 0.001 mg/kg s.c.
  cell recruitment in bronchoalveolar lavage space: has no effect on neutrophil recruitment or other cell types into the bronchoalveolar space
[1]; 0.1 mg/kg s.c.
  cell recruitment in bronchoalveolar lavage space: reduces significantly the neutrophil recruitment and the number of total cells recruited; also recorded: decreases the neutrophil and total cell recruitment into the bronchoalveolar space
[1]; MPO not significantly induced after bleomycin
  MPO levels in the lung: no effect on MPO levels in the lung; also recorded: no effect on the MPO levels in the lung
[1]; TNF levels very low after BLM
  TNF level in BALF: a trend to reduction of the TNF level in BALF; also recorded: induces a trend to decrease the TNF level
[1]; mouse, in vivo
  Bleomycin-induced inflammation (conclusion): reduces the Bleomycin-induced inflammation
[1]; peribronchial space
  histology: inflammatory cell accumulation: a decrease of the inflammatory cell accumulation in the peribronchial space
[2]
  incorporation into cells: strongly incorporated into primary macrophages
